# Like-named read-outs stand apart in the source and are kept apart here.
# Key:
# HepG2 cells [1] = format: cell-based; conditions: human, 48 h
# Protocol: HepG2 cells were cultured using Eagle’s minimum essential media (EMEM) supplemented with 10% heat-inactivated FBS, 1% non-essential amino acid (NEAA), and 1% penicillin/streptomycin. Prior to addition of the cell suspension, 250 nL of test compounds per well was pre-dispensed in tissue culture-treated black clear-bottomed 384-well plates (Greiner, cat. no. 781091) with an Echo 555 instrument. After that, 25 µL of HepG2 (cat. no. ATCC HB-8065) cells (∼3,000 cells/well) grown to confluency in EMEM supplemented with 10% heat-inactivated FBS, 1% NEAA, and 1% penicillin/streptomycin were added to each well with the reagent dispenser. Plates were allowed to incubate at 37°C with 20% O2 and 5% CO2 for 48 hrs. After incubation, the plates were equilibrated to room temperature before ATP levels were measured with the CellTiter Glo kit (Promega) as the cell viability read-out. 25 µL of CellTiter Glo substrate dissolved in the buffer was added to each well. Plates were incubated at room temperature for 10 min for stabilization of luminescence signal and read on a View Lux luminometer with excitation and emission filters of 613 and 655 nm, respectively. The Tox50 value corresponds to the concentration of the compound necessary to inhibit 50% of cell growth.
# HepG2 cells [2] = assay: Cell health assay (three-parameter imaging); format: cell-based, human
# Protocol: This is a three-parameter automated imaging cell-based assay to measure the cytotoxic effect of compounds in human liver-derived HepG2 cells. Using fluorescent staining, we measured the following key parameters in this assay: nuclear size, mitochondrial membrane potential and plasma membrane permeability. HepG2 cells (ATCC HB-8065) were incubated with the test compounds in 384-well plates. After 48 h, the staining cocktail was added. Hoechst 33342 was used to stain nuclei and quantify changes in nuclear morphology. Tetramethylrhodamine, methyl ester is a cationic dye that accumulates in healthy mitochondria that maintain a mitochondrial membrane potential and leaks out of mitochondria when the mitochondrial membrane potential is dissipated. TOTO-3 iodide labels nuclei of permeabilized cells and is used to measure plasma membrane permeability. Following 45 min of incubation with these stains, the plates were sealed using a black seal for reading on an INCell Analyzer 2000 (GE Healthcare). Each parameter measurement produces the percentages of cells which are “live” or “dead.” The IC50 is defined as the compound concentration that inhibits 50% of cell growth.
# [3] = Protocol: The Ames assay was carried out as previously described ([34]) using all strains.
# in vivo = assay: in vivo; parameters: species or system C57BL/6 mice; conditions: iv, 1 mg/kg
# Protocol: To determine the pharmacokinetic parameters, GSK138 was administered intravenously [formulation: 5% dimethyl sulfoxide (DMSO)/20% Encapsin in saline solution] as a single bolus dose in C57BL/6 mice at a target dose of 1 mg/kg. All pharmacokinetic parameters were determined in whole blood (Table 1). A moderate clearance and a moderate volume of distribution were observed.
# Single-dose pharmacokinetics experiments were performed in female C57BL/6 mice, 21–29 g, obtained from Charles River Laboratories (Wilmington, MA, USA) and housed in cages in groups of three animals with water and food ad libitum. Animals were maintained for 1 week before the experiment.
# The compound was dissolved in 20% Encapsin (Sigma-Aldrich), 5% DMSO (Sigma-Aldrich) in saline solution (Sigma-Aldrich) for intravenous administration, and in 1% methylcellulose (Sigma-Aldrich) in water for oral administration.
# For PK analysis, 25 µL of tail blood was collected by microsampling at 0.08, 0.25, 0.5, 1.0, 2.0, 4.0, 6.0, 8.0, and 24.0 h for intravenous pharmacokinetics and 0.25, 0.5, 1.0, 2.0, 4.0, 6.0, 8.0, and 24.0 h for oral pharmacokinetics.
# in vitro = in vitro ADME, canine; conditions: dog, MDCK-MDR1
# Protocol: (§1) Studies were performed as described by Polli et al. ([31]), with minor modifications. GF120918 was used as the inhibitor of P-gp. Apical-to-basolateral and basolateral-to-apical transports were studied across MDR1-MDCKII cell monolayers in the absence and presence of the P-gp inhibitor GF120918, and the Papp (intrinsic apparent permeability) was estimated in both directions with or without inhibitor.
# [4] = test system: Madin-Darby canine kidney-MDR1; assay: in vitro; format: in vitro ADME
# Protocol: as §1
# P-glycoprotein (P-gp) = biological target: T1, P-glycoprotein (P-gp) (Homo sapiens, UniProt P08183); assay: Efflux ratio with and without P-gp inhibitor GF120918 in MDR1-MDCKII cells; format: in vitro ADME
# T1 construct: expressed in transfected cells; host or cells: MDR1-MDCKII (Madin-Darby canine kidney cells expressing MDR1)
# T1 sequence (P08183 whole entry): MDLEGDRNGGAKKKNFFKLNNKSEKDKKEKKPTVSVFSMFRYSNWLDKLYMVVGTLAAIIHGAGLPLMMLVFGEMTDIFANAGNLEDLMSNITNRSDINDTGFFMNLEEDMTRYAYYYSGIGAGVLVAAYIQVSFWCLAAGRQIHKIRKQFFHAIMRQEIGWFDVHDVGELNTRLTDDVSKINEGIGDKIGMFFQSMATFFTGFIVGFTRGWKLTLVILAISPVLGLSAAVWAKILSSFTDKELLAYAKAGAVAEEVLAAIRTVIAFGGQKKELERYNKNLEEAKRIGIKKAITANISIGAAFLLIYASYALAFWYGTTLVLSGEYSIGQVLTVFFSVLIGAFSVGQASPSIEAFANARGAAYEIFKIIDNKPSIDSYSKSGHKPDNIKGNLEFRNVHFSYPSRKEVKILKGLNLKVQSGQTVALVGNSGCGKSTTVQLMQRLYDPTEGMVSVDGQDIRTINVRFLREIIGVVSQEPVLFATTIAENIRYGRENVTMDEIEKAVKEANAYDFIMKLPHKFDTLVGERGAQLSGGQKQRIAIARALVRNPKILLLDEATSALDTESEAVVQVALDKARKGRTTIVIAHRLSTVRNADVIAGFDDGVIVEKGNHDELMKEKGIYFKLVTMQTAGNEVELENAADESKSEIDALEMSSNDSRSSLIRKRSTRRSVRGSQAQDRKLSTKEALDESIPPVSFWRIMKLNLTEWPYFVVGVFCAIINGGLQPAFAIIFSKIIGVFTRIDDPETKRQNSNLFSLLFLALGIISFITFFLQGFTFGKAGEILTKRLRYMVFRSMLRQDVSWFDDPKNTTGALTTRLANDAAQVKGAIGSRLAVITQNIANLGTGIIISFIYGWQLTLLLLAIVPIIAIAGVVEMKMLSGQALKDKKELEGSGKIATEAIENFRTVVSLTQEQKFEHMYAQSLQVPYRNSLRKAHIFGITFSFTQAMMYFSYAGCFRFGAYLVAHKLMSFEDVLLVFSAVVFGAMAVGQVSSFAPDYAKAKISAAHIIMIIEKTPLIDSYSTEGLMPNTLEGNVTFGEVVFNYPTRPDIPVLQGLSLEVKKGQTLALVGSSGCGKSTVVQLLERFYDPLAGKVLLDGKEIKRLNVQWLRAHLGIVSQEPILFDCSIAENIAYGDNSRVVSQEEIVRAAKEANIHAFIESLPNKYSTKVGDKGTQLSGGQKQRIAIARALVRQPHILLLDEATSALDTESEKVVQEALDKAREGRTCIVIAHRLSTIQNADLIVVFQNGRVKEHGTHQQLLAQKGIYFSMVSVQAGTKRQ
# Protocol: The measured solubility in fasted state simulated intestinal fluid (FaSSIF) was high (Table 1). The permeability of GSK138 predicted from Madin-Darby canine kidney (MDCK) cells was also high (Table 1).
# as §1
# M. tuberculosis H37Rv = assay: Acute murine model of intratracheal infection; format: in vivo, C57BL/6 mice; conditions: oral once daily for 8 days
# [5] = format: in vitro ADME
# Protocol: To assess the susceptibility of GSK138 to P450-mediated phase I metabolism, metabolic stability was determined during incubation in CD1 mouse, Sprague Dawley rat, beagle dog, and human liver microsomes.
# Human and animal microsomes and compounds were pre-incubated at 37°C prior to addition of NADPH to final protein concentration of 0.5 mg/mL and a final compound concentration of 0.5 µM. Quantitative analysis was performed using specific liquid chromatography-tandem mass spectrometry (LC-MS/MS) conditions. The half-life, elimination rate constant, and intrinsic clearance (mL/min/g tissue) were determined. The well-stirred model was used to translate to in vivo CI values (mL/min/kg).
# [6] = test system: drug-susceptible, MDR and XDR M.tb clinical isolates; assay: microbe, parasite or virus in culture; format: cell-based, M. tuberculosis; conditions: Mycobacterium tuberculosis
# hERG = hERG (Homo sapiens, UniProt Q12809); assay: hERG Qpatch; format: biochemical
# Chain of hERG (Q12809 whole entry): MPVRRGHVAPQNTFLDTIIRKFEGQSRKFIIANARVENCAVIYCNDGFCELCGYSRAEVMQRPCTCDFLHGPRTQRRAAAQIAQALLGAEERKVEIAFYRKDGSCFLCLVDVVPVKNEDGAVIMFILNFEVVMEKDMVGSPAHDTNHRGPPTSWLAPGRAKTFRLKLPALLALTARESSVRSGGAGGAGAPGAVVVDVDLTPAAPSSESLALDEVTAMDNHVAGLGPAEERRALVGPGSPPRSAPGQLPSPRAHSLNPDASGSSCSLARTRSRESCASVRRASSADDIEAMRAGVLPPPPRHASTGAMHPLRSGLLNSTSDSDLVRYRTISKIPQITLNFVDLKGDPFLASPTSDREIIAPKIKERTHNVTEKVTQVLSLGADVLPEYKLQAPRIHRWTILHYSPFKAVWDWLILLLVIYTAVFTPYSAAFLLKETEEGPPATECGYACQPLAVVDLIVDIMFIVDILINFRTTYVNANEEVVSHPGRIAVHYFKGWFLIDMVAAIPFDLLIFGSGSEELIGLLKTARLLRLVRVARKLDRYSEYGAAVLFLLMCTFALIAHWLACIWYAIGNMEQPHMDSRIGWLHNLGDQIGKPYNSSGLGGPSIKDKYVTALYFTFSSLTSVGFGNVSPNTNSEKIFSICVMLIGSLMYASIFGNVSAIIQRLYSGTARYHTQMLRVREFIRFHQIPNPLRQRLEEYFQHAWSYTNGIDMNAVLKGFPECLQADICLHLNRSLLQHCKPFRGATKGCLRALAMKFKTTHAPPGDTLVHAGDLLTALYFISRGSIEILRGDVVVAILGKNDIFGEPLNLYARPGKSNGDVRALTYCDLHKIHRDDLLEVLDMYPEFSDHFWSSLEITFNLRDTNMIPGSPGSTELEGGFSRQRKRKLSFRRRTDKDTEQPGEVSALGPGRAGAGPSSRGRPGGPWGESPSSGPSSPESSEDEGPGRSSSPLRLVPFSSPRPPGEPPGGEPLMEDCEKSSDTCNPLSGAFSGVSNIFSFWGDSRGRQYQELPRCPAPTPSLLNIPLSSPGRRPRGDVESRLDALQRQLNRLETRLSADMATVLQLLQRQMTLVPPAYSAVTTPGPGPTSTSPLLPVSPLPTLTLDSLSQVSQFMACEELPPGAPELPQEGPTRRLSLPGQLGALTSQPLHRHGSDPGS
# Protocol: hERG activity was measured as previously described ([35]).
smiles,measurement,setting,value
Cc1csc([C@](C)(O)c2nnc(Nc3cc(C)n(Cc4csc(C)n4)n3)s2)n1 [GSK138],HepG2 cytotoxicity Tox50,HepG2 cells [1],>100 µM
same,"Cell health IC50 (nuclear size, mitochondrial membrane potential, and plasma membrane permeability)","HepG2 cells [2]; HepG2, 48 h",>199.5 µM
same,effect in the cell health assay,"HepG2 cells [2]; membrane, nuclear and mitochondrial damages",no effect up to the highest concentration tested (200 µM)
same,Ames test,[3],Negative
same,Vd,"in vivo; female, C57BL/6, mouse",2.6 ± 0.3 L/kg
same,clearance,"in vivo; female, C57BL/6, mouse",77.6 ± 16.8 mL/min/kg
same,clearance,in vivo; mouse,moderate
same,volume of distribution,in vivo; mouse,moderate
same,Papp,in vitro,37.4 ×10⁻⁶ cm/s
same,permeability predicted from MDCK cells,[4],high
same,P-gp substrate status from efflux ratio,P-glycoprotein (P-gp),P-gp substrate
same,effect on bacteria at the highest doses,M. tuberculosis H37Rv,net killing of the bacteria
same,ED99 (dose producing a 2-log10 reduction in CFUs compared to untreated control mice),M. tuberculosis H37Rv; 95% CI 50–67,57 mg/kg
same,EDmax (dose at which 90% of the maximum bactericidal effect was achieved),M. tuberculosis H37Rv; 95% CI 125 to >290,167 mg/kg
same,in vitro clearance in liver microsomes,[5]; dog,moderate
same,in vitro clearance in liver microsomes,[5]; human,low
same,In vitro Clint dog,[5]; microsomes,1.7 mL/min/g tissue
same,In vitro Clint human,[5]; microsomes,0.3 mL/min/g tissue
same,In vitro Clint mouse,[5]; microsomes,4.4 mL/min/g tissue
same,In vitro Clint rat,[5]; microsomes,3.5 mL/min/g tissue
same,in vitro clearance in liver microsomes,[5]; mouse,moderate
same,in vitro clearance in liver microsomes,[5]; rat,moderate
same,MIC90,[6],3.75 µM
same,IC50,hERG,> 30 µM
